Assay results: US4416826A, “Peresters and use thereof” (priority 1980, dated 1983)
Entries after “also recorded” stand apart in the source; their conditions may differ.

Assays:
[1] = Solubility in benzene; assay type: physicochemical
[2] = End group analysis of polystyrene by IR
Protocol: The polystyrene obtained from each of the above polymerizations is purified by repeated (four times) precipitation from benzene solution with methanol. Before each precipitation, the benzene solution is centrifuged to remove any insoluble material. The finely powdered polymer is filtered and dried under vacuum for two days. Known amounts of polymer are dissolved in benzene and the IR is taken (2000-1500 cm^-1) against benzene in 0.1-mm NaCl cells. The peaks at 1730 and 1670 cm^-1 for the carbonyl groups, caused by ester and benzophenones, respectively, are measured. […] The extinction coefficient of the carbonyl group at 1730 cm^-1 is compared with that of authenticated methyl benzoylbenzoate, which is used as a model to measure the concentration of the ester end groups in the polymer. From the concentration of the ester and the extinction resulting from the carbonyl group in the benzophenone, the absorption caused by the benzophenone that is present as the ester can be calculated. The value is subtracted from the absorption obtained at 1670 cm^- 1 for the polymer. From the resulting absorption, the concentration of benzophenone alone is estimated from the known extinction of benzophenone at that wavelength.

[3] = Relative quantum yield of initiator decomposition in presence of monomer (IR at 1770 cm^-1); assay type: physicochemical; settings: for relative quantum yield φrel of decomposition: chloroform, initiator 2 × 10^-2 M
Protocol: (§1) Commercial styrene is washed three times with ice cold 2% NaOH solution followed by washing (four times) with distilled water. The styrene is dried over anhydrous CaCl2 and distilled under vacuum before use. The middle fraction of the distillate is used for polymerization. Solvents are purified by conventional means and distilled under N2 atmosphere.
(§2) The irradiations are carried out in degassed (three cycles of freeze-thaw under high vacuum) sealed 15-mm Pyrex tubes. The tubes are placed in a merry-go-round with a filtered UV source of 366 nm at the center and the yield of polymer is measured (below 10% conversion) gravimetrically. In all of the cases, tubes of the same size and same volume of solution are used. Number-average molecular weights of the purified polymers are determined by viscometry in a benzene solution. After the polymerization, an aliquot of 0.5 ml from each reaction tube is placed in 2-ml volumetric flasks. The solvent and excess monomer are evaporated under high vacuum for several hours. The remaining flask contents are dissolved in 0.5 ml of benzene or chloroform and the polymer is precipitated by adding 0.5 ml of n-hexane. The solution then is centrifuged and the IR of the centrifugate is measured to determine undecomposed perester. All of the above procedures are carried out as far as possible in the dark. The light intensity is measured by benzophenone-benzhydrol actinometry and observed to be Io =6.56×10^17 quanta/min on the average. The temperature of the tubes is maintained at 30° C.
The decomposition of the initiator employed is followed by IR at 1770 cm^-1 (caused by the carbonyl adjacent to the peroxy group) against an appropriate solvent blank. The initiators employed are .rho.-benzoylperoxybenzoic acid tert-butylester (Ia) and prior art benzophenone peroxide. In addition, the above procedure is repeated except that methyl methacrylate is employed in place of styrene. Table IX below illustrates the relative quantum yield for the decomposition of the initiators in the recited amounts of monomers, assuming that the quantum yield for the decomposition of the perester and peroxide in the absence of any monomer is one.

[4] = Photopolymerization of styrene, radical efficiency; settings: chloroform, [I] 5.00 × 10^-3 M
Protocol: as §1, §2
The efficiency of the radicals to initiate polymerization, f, in the absence of any appreciable amount of chain transfer, can be defined as [formula] assuming bimolecular termination by the combination of two growing chains only [formula] whereas kd =rate of decomposition of perester in mol/liter sec. in the absence of monomer (a function of light intensity).

[5] = Polymerization of unsaturated polyester films under UV lamp (wipe resistance, pendulum hardness); settings: for Passes necessary to achieve resistance to wiping: 0.2 parts in 10 parts resin, 100μ film, 17 m/min
Protocol: This mixture is stirred until a solution is obtained, which is then drawn out on glass plates with a film drawer (100μ). […] The samples are passed, on a conveyer belt, under the UV-lamp at a rate of 17 m/min. (20 volts).
In addition, the hardness of the film is determined using a pendulum apparatus according to Konig.

[6] = literature discussion; cited from earlier work
[7] = Stern-Volmer triplet quenching with naphthalene; assay type: physicochemical; settings: C6 H6
From the text: All the peresters give linear Stern-Volmer plots when naphthalene is used as triplet quencher.

[8] = Polymerization of methyl methacrylate; settings: initiator 5 × 10^-2 M, [MMA] = 3.1 M, 25° C., benzene
Protocol: Commercial methyl methacrylate monomer is washed three times with 2% NaOH solution to remove stabilizer. It is then washed with distilled water three times, dried with molecular sieves, and distilled under vacuum before use. Polymerization solutions are prepared in cylindrical tubes which are degassed and sealed. The amount of polymer formed is determined by precipitating the polymer with an excess of methanol, washing with methanol, and filtering through fine sintered crucibles (previously weighed) followed by drying in a vacuum oven. The irradiation condition is the same as that in the decomposition rate example hereinabove.

[9] = Thermal stability / thermal decomposition of peresters in the dark; assay type: physicochemical
[10] = Photolysis of peresters and analysis of photoproducts; assay type: physicochemical; settings: methanol compared with cyclohexane or with other peresters
Protocol: The amount of perester used is in the range of 300-500 mg. The solutions are placed in Pyrex tubes, flushed with nitrogen for 10 min., and sealed with a rubber cap.
After the irradiation, the yield of CO2 is measured by applying N2 pressure and trapping the CO2 with a Ba(OH)2 solution. The photolyzed solutions are evaporated (in the case of perester Ia treatment with excess diazomethane gives the best separation procedure) and again evaporated. Chromatography over 2 mm silica gel plates (E. Merck) with dichloromethane as the developing solvent separates the products. Extraction of the silica gel is done with ether. The identity of each sample is confirmed by GLC or high-pressure LC by comparison with authentic samples or by melting points of the solids.
This is shown by comparison with an authentic sample and combination of spectroscopic techniques. […] The same product is formed when 4-benzoylbenzoic acid is irradiated for 2 hours in CH3 OH in 26% yield. The structure of this secondary photoproduct is shown by independent synthesis (reduction of methyl 4-benzoylbenzoate by NaBH4). Among other secondary photoproducts found in small amounts is a mixture of pinacols. These are confirmed by synthesis of a similar pinacol mixture upon irradiation of methyl 4-benzoylbenzoate in isopropyl alcohol. […]

[11] = Photodecomposition kinetics and quantum yields at 366 nm (benzophenone-benzhydrol actinometry); assay type: physicochemical
Protocol: Kinetic studies are carried out in degassed, sealed tubes by irradiating them with 366 nm light obtained from a Hanovia medium-pressure mercury lamp by combining the Corning Filters 0-52 and 7-60. The decompositions of the […] followed by the carbonyl IR absorption adjacent to the peroxide group (O=COO--) (1770 cm^-1). Benzophenone-benzhydrol redox actinometry are used throughout the study. In particular, a solution of […] (2 mL) in the appropriate solvent is placed in Pyrex tubes (12-mm diameter), degassed, and sealed under vacuum. Three cycles of freeze-thaw removes dissolved oxygen. The tubes are placed in a merry-go-round around a water-cooled light source, removed at different predetermined intervals, and kept frozen in liquid nitrogen in the dark until analysis is done. The estimation of […] done by quantitative IR, monitoring the carbonyl peak at 1770 cm^-1. […] Absorbance is measured with a 0.1 mm NaCl cell against solvent reference. With every run, two tubes containing actinometric solutions (benzophenone (0.1 M) and benzhydrol (0.05 M) in benzene are irradiated.

[12] = Triplet energy; assay type: physicochemical
[13] = Exp. 7: chloroform, [I] 5.0 × 10^-3 M, styrene 3.61 M
[14] = Exp. 8: chloroform, [I] 4.52 × 10^-3 M, styrene 4.33 M
[15] = Exp. 9: chloroform, [I] 4.94 × 10^-3 M, styrene 5.88 M
[16] = 110° C., chlorobenzene, dark, initial concn Ia 5.01, Ib 5.15, Ic 5.19 × 10^-2 M

Compound: O=C(OOC(=O)c1ccc(C(=O)c2ccccc2)cc1)c1ccc(C(=O)c2ccccc2)cc1 [Peroxide, reference compound]
- solubility in benzene [1]: insoluble in benzene
- total number of benzophenones as end groups per chain, in words [2]: almost two
- end groups per chain, Benzophenone [2, 13]: 0.54
- end groups per chain, Benzophenone as ester [2, 13]: 1.29
- end groups per chain, Total [2, 13]: 1.83
- end groups per chain, Benzophenone [2, 14]: 0.62
- end groups per chain, Benzophenone as ester [2, 14]: 1.30
- end groups per chain, Total [2, 14]: 1.92
- end groups per chain, Benzophenone [2, 15]: 0.72
- end groups per chain, Benzophenone as ester [2, 15]: 1.36
- end groups per chain, Total [2, 15]: 2.08
- effect of styrene on quantum yield of decomposition, in words [3]: the quenching effect being greater with the peroxide than the perester
- relative quantum yield φrel of decomposition ([3]; styrene 2.18 M): 0.05
- relative quantum yield φrel of decomposition ([3]; styrene 2.23 M): 0.06
- relative quantum yield φrel of decomposition ([3]; styrene 4.26 M): 0.08
- Average degree of polymerization ([4]; [M] 3.61 M): 159.6
- Radical efficiency f ([4]; [M] 3.61 M): 0.33
- Rp × 10^5 ([4]; [M] 3.61 M): 1.07 mole/liter sec
- φrel ([4]; [M] 3.61 M): 0.08
- Average degree of polymerization ([4]; [M] 4.33 M): 155.8
- Radical efficiency f ([4]; [M] 4.33 M): 0.33
- Rp × 10^5 ([4]; [M] 4.33 M): 1.04 mole/liter sec
- φrel ([4]; [M] 4.33 M): 0.08
- Average degree of polymerization ([4]; [M] 5.88 M): 372.9
- Radical efficiency f ([4]; [M] 5.88 M): 0.26
- Rp × 10^5 ([4]; [M] 5.88 M): 1.72 mole/liter sec
- φrel ([4]; [M] 5.88 M): 0.08

Compound: O=C(c1ccccc1)c1ccccc1 [Benzophenone, reference compound]
- Passes necessary to achieve resistance to wiping [5]: > 20
- Pendulum hardness according to Konig, H ([5]; number of passes for hardness not given): wet
- triplet energy [6]: ~69 kcal/mol

Compound: Cc1cc(C)c(C(=O)c2ccc(C(=O)OOC(C)(C)C)cc2)c(C)c1 [Ib, Tert-butyl-4-(2',4',6'-trimethylbenzoyl)perbenzoate]
- quenching constant kq τ [7]: 15
- Rate of Polymerization (Rp) of MMA, Rp × 10^5 [8]: 8.31 mL^-1 s^-1
- thermal 1st order dec rate × 10^5 [9, 16]: 1.80 M × 10^5 s^-1
- thermal half-life t1/2 [9, 16]: 10.7 h
- rate of photodecomposition, qualitative [10]: the effect of methanol is to slow the rate of decomposition; also recorded: apparently slower rate of decomposition in methanol than either that of Ia or Ic
- apparent first-order photodecomposition rate constant kd × 10^4 ([11]; C6 H6, 25° C., 366 nm, I = 6.56 × 10^17 quanta/min, 5.03-6.06 × 10^-2 M, given as kd × 10^4): 1.34 s^-1
- quantum yield of decomposition (φ of dec) ([11]; C6 H6, 366 nm, perester 5.03-6.06 × 10^-2 M): 0.80
- quantum yield of decomposition (φ of dec) ([11]; methanol, TBP 5.08 × 10^-2 M, Ia 5.38, Ib 6.15 × 10^-2 M): 0.62
- quantum yield of decomposition (φ of dec) ([11]; methanol, no TBP, Ia 5.38, Ib 6.15, Ic 5.10 × 10^-2 M): 1.30
- triplet energy ET [12]: 67.4 kcal/mol

Compound: Cc1ccc(C(=O)c2ccc(C(=O)OOC(C)(C)C)cc2)cc1
- Passes necessary to achieve resistance to wiping [5]: 13
- Pendulum hardness according to Konig, H ([5]; after 13 passes): 23
- Pendulum hardness according to Konig, H ([5]; after 15 passes): 51

Compound: O=C(OOC(=O)c1ccccc1)c1ccccc1 [Bz2 O2, benzoyl peroxide, reference compound]
- Rate of Polymerization (Rp) of MMA, Rp × 10^5 ([8]; benzophenone 5.5 × 10^-2 M): 2.58 mL^-1 s^-1
- thermal decomposition, in words ([9]; 80° C. in benzene): a decomposition rate comparable to the literature value
- photodecomposition behaviour, in words ([11]; 366 nm radiation, room temperature): photostable
- quantum yield of sensitized decomposition (φ of dec) ([11]; C6 H6, 4.67 × 10^-2 M, benzophenone 5.89 × 10^-2 M): 0.32
- sensitized photodecomposition rate constant kd × 10^4 ([11]; C6 H6, 25° C., 4.67 × 10^-2 M, benzophenone 5.89 × 10^-2 M, given as kd × 10^4): 0.64 s^-1
- quantum yield of sensitized decomposition (φ of dec) ([11]; CCl4, 3.50 × 10^-2 M, benzophenone 3.75 × 10^-2 M): 0.17

Compound: COc1ccc(C(=O)c2ccc(C(=O)OOC(C)(C)C)cc2)cc1
- Passes necessary to achieve resistance to wiping [5]: 14
- Pendulum hardness according to Konig, H ([5]; after 14 passes): 23
- Pendulum hardness according to Konig, H ([5]; after 16 passes): 26

Compound: C=Cc1ccccc1 [Styrene]
- triplet energy [6]: 62 kcal/mol

Compound: CC(C)(C)OOC(=O)c1ccc(C(=O)c2ccccc2)cc1 [drawing 15]
- Passes necessary to achieve resistance to wiping [5]: 12
- Pendulum hardness according to Konig, H ([5]; after 12 passes): 24
- Pendulum hardness according to Konig, H ([5]; after 14 passes): 38
